These results are taken from PMC3707052 (Alzheimer's Research & Therapy, 2013).

Where two headings read alike, the source gives them in different places.

Assay [1] has as its target gamma-secretase. Also noted: method as in PMID 22505028, PMID 19542625. Particulars: weak modulator; cited from earlier work.
The test system of assay [2] is gamma-secretase. As to the kind of experiment: Six-day once-a-day oral dosing PK/PD in Tg2576 mice (brain, plasma, CSF Aβ). Format: in vivo. Particulars: positive control, orally once on day six, 6 hrs post dose.
Protocol: Female transgenic mice (Tg2576, 3 months of age; n = 20), wild-type male CD-1 mice (six weeks of age; n = 8 to 12) or wild-type male Sprague Dawley rats (200 to 225 g body weight; n = 12) were utilized to assess in vivo efficacy.
In the transgenic studies, compound was dosed in 10:20:70 ethanol/solutol/water via oral gavage. […] The mice were subjected to cisterna magna puncture and collection of cerebrospinal fluid (CSF) (approximately 5 μl per mouse). Individual CSF samples were flash-frozen on dry ice and stored at -80°C. Thereafter, the mice were subjected to cardiac puncture and blood samples were collected into K2EDTA tubes and stored on wet ice until processed to plasma by centrifugation (2,000 g at 4°C for 10 minutes) within 30 minutes of collection. The plasma was aliquoted for both Aβ measurements and parent drug using LC/MS/MS. Both sets of tubes were frozen at -80°C. The brains were perfused with non-heparinized saline (the blood flushed away) and removed carefully. Brains were rinsed with ice cold PBS (without Mg^2+ or Ca^2+), blotted dry, dissected on ice into three pieces (left and right hemisphere and cerebellum). Samples were frozen in liquid nitrogen immediately prior to storage at -80°C. Cerebella were analyzed for parent drug via LC/MS/MS. Parent drug levels were compared to a standard curve to establish the plasma, brain and CSF levels. […]
Assay [3] relates to gamma-secretase. As to the kind of experiment: Aβ peptides in conditioned media of CHO-2B7 cells (MSD 3-Plex). To be noted: for IC50: 5 hrs treatment, conditioned media. Format: cell-based, Chinese hamster. How it is done: CHO-2B7 cells (Mayo Clinic) are Chinese hamster ovary cells stably transfected with human βAPP 695wt. The cells were cultured in Ham's F12 media (Thermo Fisher SH30026.01, Waltham, MA, USA) supplemented with 10% FBS, 0.25 mg/mL Zeocin and 90 ug/mL penicillin/streptomycin at 37°C in a 5% CO2 atmosphere. For compound treatment, cells were plated in 96-well plates at a density of 1.0 × 10^5 cells/mL and allowed grow to 100% confluence over two days. Test compounds in dimethyl sulfoxide (DMSO) were diluted 100-fold directly into the media before being adding to the cells. Immediately prior to adding compound-containing media to the cells, the cells were washed once with 1X PBS. Conditioned media from CHO-2B7 cells were collected after 5 hrs of treatment and the levels of Aβ peptides were assessed as described below.
Conditioned media were collected after 5 hrs of treatment and diluted with one volume of MSD blocking buffer (1% BSA in MSD wash buffer). MSD Human (6E10) Aβ 3-Plex plates, which are pre-spotted with three separate spots in each well containing capture antibodies against the unique C-terminal ends of Aβ38, Aβ40 and Aβ42, respectively, were blocked with MSD blocking buffer for one hour. Samples were transferred to the blocked plates with 6E10 detection antibody and incubated for 2 hrs at room temperature with orbital shaking followed by washing and reading according to the manufacturer's instructions (SECTOR® Imager 2400 Meso Scale Discovery, Gaithersburg MD, USA).

In the case of `C[C@@H](C(=O)O)c1ccc(-c2ccccc2)c(F)c1` [Flurizan], the half-inhibitory concentration (IC50) in assay [1] is 250 µM.
Turning to `CC(C)CC[C@H](c1ccc(Cl)cc1)N1CC[C@@H](CC(=O)O)C[C@H]1c1ccc(C(F)(F)F)cc1` [Merck GSM-1], in assay [2], the “effect on Aβ38 levels” value was “increased Aβ38 levels” and the “effect on Aβ42 levels” value is given as “significantly reduced Aβ42”.
Turning to `CCO[C@@H]([C@H]1C[C@@H](C)[C@H]2[C@@H](O1)[C@H](O)[C@@]1(C)[C@@H]3CC[C@H]4C(C)(C)[C@@H](O[C@H]5CN(C6CN(C(C)C)C6)CCO5)CC[C@@]45C[C@@]35CC[C@]21C)C(C)(C)O` [SPI-1865], the “Total Aβ” value in assay [3] (CHO-2B7 cells) is given as “only decreased at doses where cytotoxicity was observed”. For the same compound, the IC50 in assay [3] (CHO-2B7 cells, read-out: IC50 Aβ38) came to 0.259 µM; in assay [3] (CHO-2B7 cells, read-out: IC50 Aβ40) it was 2.8 µM; in assay [3] (CHO-2B7 cells, read-out: IC50 Aβ42), 0.106 µM. In addition, the “IC25 Aβ42” value in assay [3] (in vitro) is 0.033 ± 0.018 µM.
